In ChEMBL document CHEMBL1201862, “PubChem BioAssay data set” (2004):
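Each compound was tested at five concentrations against cells in 96-well plates for 48 hours. The concentration for 50% growth inhibition is given as GI50.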 Calls of active or inactive are those of the source. Cut-off read from the data, not from the text of the source: active = GI50 up to about 1.1 µM and inactive = higher.

Tests used:
Test in all cases: DTP human tumour cell line panel, 48 h
HCC 2998 = test system: HCC 2998
UO-31 = test system: UO-31
PC-3 = test system: PC-3
EKVX = test system: EKVX
SK-MEL-5 = test system: SK-MEL-5
RPMI-8226 = test system: RPMI-8226
MCF7 = test system: MCF7
SR = test system: SR
SNB-19 = test system: SNB-19
SNB-75 = test system: SNB-75
NCI-H23 = test system: NCI-H23
LOX IMVI = test system: LOX IMVI
MOLT-4 = test system: MOLT-4
CCRF-CEM = test system: CCRF-CEM
IGROV-1 = test system: IGROV-1
HCT-15 = test system: HCT-15
SF-268 = test system: SF-268
RXF 393 = test system: RXF 393
HOP-62 = test system: HOP-62
MDA-N = test system: MDA-N

| Structure (SMILES) | GI50 (HCC 2998) | GI50 (UO-31) | GI50 (PC-3) | GI50 (EKVX) | GI50 (SK-MEL-5) | GI50 (RPMI-8226) | GI50 (MCF7) | GI50 (SR) | GI50 (SNB-19) | GI50 (SNB-75) | GI50 (NCI-H23) | GI50 (LOX IMVI) | GI50 (MOLT-4) | GI50 (CCRF-CEM) | GI50 (IGROV-1) | GI50 (HCT-15) | GI50 (SF-268) | GI50 (RXF 393) | GI50 (HOP-62) | GI50 (MDA-N) |
| --- | --- | --- | --- | --- | --- | --- | --- | --- | --- | --- | --- | --- | --- | --- | --- | --- | --- | --- | --- | --- |
| CC(=O)C(C)CCOC1(C)OCCC1C (stereo not given) | > 100 µM (inactive) | > 100 µM (inactive) | > 100 µM (inactive) | > 100 µM (inactive) | > 100 µM (inactive) | > 100 µM (inactive) | > 100 µM (inactive) | > 100 µM (inactive) | > 100 µM (inactive) | > 100 µM (inactive) | > 100 µM (inactive) | > 100 µM (inactive) | > 100 µM (inactive) | > 100 µM (inactive) | > 100 µM (inactive) | > 100 µM | > 100 µM (inactive) | > 100 µM (inactive) | > 100 µM (inactive) | – |
| O=[N+]([O-])c1ccc2nc3c(nc2c1)-c1c2ccccc2cc2cccc-3c12 | 33.3 µM (inactive) | 12.1 µM (inactive) | 9.55 µM (inactive) | 26.4 µM (inactive) | 31.8 µM (inactive) | 17.7 µM (inactive) | 4.06 µM (inactive) | – | 11.7 µM (inactive) | – | 3.61 µM (inactive) | 4.8 µM (inactive) | 2.17 µM (inactive) | 6.12 µM (inactive) | 4.43 µM (inactive) | 6.28 µM | 13.8 µM (inactive) | 8.41 µM (inactive) | 18.6 µM (inactive) | 10.5 µM (inactive) |
| O=C1C2=Nc3ccccc3C(O)(C(=O)O)N2c2ccccc21 (stereo not given) | 45.2 µM (inactive) | 12.5 µM (inactive) | 6.61 µM (inactive) | 60.7 µM (inactive) | 14 µM (inactive) | 6.68 µM (inactive) | 19.9 µM (inactive) | 14.6 µM (inactive) | – | 27.2 µM (inactive) | 24.1 µM (inactive) | 20.1 µM (inactive) | 17.6 µM (inactive) | 21.9 µM (inactive) | 37.7 µM (inactive) | 15.2 µM | 18.2 µM (inactive) | 40 µM (inactive) | 25.4 µM (inactive) | – |
| COC(=O)Cc1c(C2=Nc3ccccc3C2(O)CC(=O)OC)[nH]c2ccccc12 (stereo not given) | – | 68.5 µM (inactive) | 30 µM (inactive) | 36.6 µM (inactive) | 60.4 µM (inactive) | 25.4 µM (inactive) | – | – | 55.8 µM (inactive) | > 100 µM (inactive) | > 100 µM (inactive) | 99.3 µM (inactive) | 19.7 µM (inactive) | 20.1 µM (inactive) | 1.09 µM (active) | 40.9 µM | > 100 µM (inactive) | 97.9 µM (inactive) | > 100 µM (inactive) | > 100 µM (inactive) |
| CCOC(=O)C(C(=O)COC(C)(C)C)[C@@H]1C=C[C@H](OC(C)=O)C1 (stereo not given in full) | > 100 µM (inactive) | > 100 µM (inactive) | > 100 µM (inactive) | > 100 µM (inactive) | – | > 100 µM (inactive) | > 100 µM (inactive) | – | > 100 µM (inactive) | > 100 µM (inactive) | > 100 µM (inactive) | – | 65.2 µM (inactive) | 73.8 µM (inactive) | – | > 100 µM | > 100 µM (inactive) | – | > 100 µM (inactive) | > 100 µM (inactive) |
| c1ccc(C(/C(=N/c2ccc(Cc3ccc(/N=C(\C(c4ccccc4)c4ccccc4)N4CC4)cc3)cc2)N2CC2)c2ccccc2)cc1 | 10.1 µM (inactive) | 2.6 µM (inactive) | 3.83 µM (inactive) | 10.1 µM (inactive) | 5.04 µM (inactive) | 3.65 µM (inactive) | 3.1 µM (inactive) | 1.31 µM (inactive) | 13.1 µM (inactive) | – | 10.5 µM (inactive) | 1.53 µM (inactive) | – | 3.18 µM (inactive) | 0.942 µM (active) | 10.1 µM | 4.86 µM (inactive) | 1.09 µM (active) | 12.8 µM (inactive) | – |
| [Zn+2][N+]12CCN3CCN4CCN(CC1)[PH]432 (stereo not given) | > 100 µM (inactive) | > 100 µM (inactive) | – | > 100 µM (inactive) | > 100 µM (inactive) | > 100 µM (inactive) | – | > 100 µM (inactive) | > 100 µM (inactive) | > 100 µM (inactive) | > 100 µM (inactive) | > 100 µM (inactive) | > 100 µM (inactive) | > 100 µM (inactive) | > 100 µM (inactive) | > 100 µM | – | > 100 µM (inactive) | > 100 µM (inactive) | – |
| COc1cc(N(CCC#N)CCC#N)ccc1C(/N=N/c1cccc(C)c1)=N\NC(=O)c1ccc(C)cc1 | 79.3 µM (inactive) | > 100 µM (inactive) | > 100 µM (inactive) | 87.7 µM (inactive) | > 100 µM (inactive) | 35.7 µM (inactive) | 29.1 µM (inactive) | – | > 100 µM (inactive) | – | > 100 µM (inactive) | > 100 µM (inactive) | 7.91 µM (inactive) | 97.3 µM (inactive) | > 100 µM (inactive) | > 100 µM | 35.5 µM (inactive) | 73.8 µM (inactive) | > 100 µM (inactive) | > 100 µM (inactive) |
| COC(=O)/C(=N/NC(=O)C[N+](C)(C)C)C(C(=O)OC)C(=O)C(=O)Nc1ccc(F)cc1 (stereo not given) | > 100 µM (inactive) | > 100 µM (inactive) | – | > 100 µM (inactive) | > 100 µM (inactive) | > 100 µM (inactive) | – | > 100 µM (inactive) | > 100 µM (inactive) | > 100 µM (inactive) | > 100 µM (inactive) | > 100 µM (inactive) | > 100 µM (inactive) | > 100 µM (inactive) | > 100 µM (inactive) | > 100 µM | > 100 µM (inactive) | > 100 µM (inactive) | > 100 µM (inactive) | – |
| O=C(NCCNCCCNC(=O)c1cc(-c2ccccc2)nc2ccccc12)c1cccc(O)c1O | 3.73 µM (inactive) | 3.3 µM (inactive) | 5.94 µM (inactive) | 24.4 µM (inactive) | 1.36 µM (inactive) | 2.85 µM (inactive) | 3.3 µM (inactive) | – | 2.1 µM (inactive) | 10.6 µM (inactive) | 6.14 µM (inactive) | 3.33 µM (inactive) | 0.916 µM (active) | 0.697 µM (active) | 7.82 µM (inactive) | 5.36 µM | 2.86 µM (inactive) | 4.84 µM (inactive) | 1.05 µM (active) | – |
| Oc1ccc(Cl)cc1/N=N\c1c(O)ccc2ccccc12 | – | > 100 µM (inactive) | > 100 µM (inactive) | > 100 µM (inactive) | 92.7 µM (inactive) | > 100 µM (inactive) | – | > 100 µM (inactive) | > 100 µM (inactive) | > 100 µM (inactive) | > 100 µM (inactive) | 60.7 µM (inactive) | 35 µM (inactive) | > 100 µM (inactive) | > 100 µM (inactive) | > 100 µM | > 100 µM (inactive) | > 100 µM (inactive) | > 100 µM (inactive) | > 100 µM (inactive) |
| OC(/C(=N/c1ccccc1)c1ccccc1)c1ccccc1 (stereo not given) | – | 18 µM (inactive) | – | 2.48 µM (inactive) | 2.07 µM (inactive) | 4.49 µM (inactive) | 5.62 µM (inactive) | 3.53 µM (inactive) | 6.52 µM (inactive) | 5.6 µM (inactive) | 4.4 µM (inactive) | 12.4 µM (inactive) | 6.62 µM (inactive) | 3.32 µM (inactive) | 9.46 µM (inactive) | 29 µM | 4.99 µM (inactive) | 12.3 µM (inactive) | 17.1 µM (inactive) | – |
| Cc1ccc(S(=O)(=O)SCc2ccccc2)cc1 | 24.2 µM (inactive) | > 92.5 µM (inactive) | – | 43.8 µM (inactive) | 25.6 µM (inactive) | 10.1 µM (inactive) | – | 28 µM (inactive) | 29.7 µM (inactive) | > 49.3 µM (inactive) | 19 µM (inactive) | 18.9 µM (inactive) | 2.32 µM (inactive) | 2.33 µM (inactive) | 39.1 µM (inactive) | 14.1 µM | 34 µM (inactive) | 28.4 µM (inactive) | 49.7 µM (inactive) | – |
| CC(C)(C)OC(=O)NNC(=O)C1Cc2ccccc2OC1=O (stereo not given) | > 100 µM (inactive) | > 100 µM (inactive) | > 100 µM (inactive) | > 100 µM (inactive) | > 100 µM (inactive) | > 100 µM (inactive) | – | > 100 µM (inactive) | > 100 µM (inactive) | – | > 100 µM (inactive) | – | > 100 µM (inactive) | – | > 100 µM (inactive) | > 100 µM | > 100 µM (inactive) | > 100 µM (inactive) | > 100 µM (inactive) | > 100 µM (inactive) |
| CC(C)N1C(C)[C@@H](c2ccccc2)O[P@]1(=O)CC1=CCCCC1 (stereo not given in full) | 99.3 µM (inactive) | 74 µM (inactive) | – | 85.9 µM (inactive) | 45.2 µM (inactive) | 62.8 µM (inactive) | – | 44.5 µM (inactive) | > 100 µM (inactive) | > 100 µM (inactive) | 82.8 µM (inactive) | 74.1 µM (inactive) | 44.3 µM (inactive) | 35.6 µM (inactive) | > 100 µM (inactive) | > 100 µM | > 100 µM (inactive) | > 100 µM (inactive) | > 100 µM (inactive) | – |
| C[C@]12CCC[C@H](OC=O)C1(O)C[C@H](C(=O)O)CC2 (stereo not given in full) | > 100 µM (inactive) | > 100 µM (inactive) | – | 19.8 µM (inactive) | > 100 µM (inactive) | > 100 µM (inactive) | – | > 100 µM (inactive) | > 100 µM (inactive) | > 100 µM (inactive) | > 100 µM (inactive) | > 100 µM (inactive) | > 100 µM (inactive) | > 100 µM (inactive) | > 100 µM (inactive) | > 100 µM | > 100 µM (inactive) | > 100 µM (inactive) | > 100 µM (inactive) | – |
